Experimental data taken from BigSolDB 2.1.

O=C(O)c1cc(C(=O)O)cc(C(=O)O)c1
Conditions | solubility (mole fraction)
in ethanol, 302.89 K | 0.0207
in ethanol, 309.85 K | 0.0228
in ethanol, 312.83 K | 0.0237
in ethanol, 319.06 K | 0.0257
in ethanol, 324.5 K | 0.0277
in ethylene glycol, 305.44 K | 0.00826
in ethylene glycol, 310.56 K | 0.00951
in ethylene glycol, 315.85 K | 0.0112
in ethylene glycol, 321.33 K | 0.0131
in ethylene glycol, 326.03 K | 0.0147
in ethylene glycol, 331.84 K | 0.0178
in isobutanol, 306 K | 0.0078
in isobutanol, 310.65 K | 0.0086
in isobutanol, 314.94 K | 0.00926
in isobutanol, 319.87 K | 0.0104
in isobutanol, 324.75 K | 0.0117
in isobutanol, 330.58 K | 0.0132
in isopropanol, 305.77 K | 0.00706
in isopropanol, 311.02 K | 0.00798
in isopropanol, 315.67 K | 0.00869
in isopropanol, 320.61 K | 0.00949
in isopropanol, 324.58 K | 0.0104
in isopropanol, 330.39 K | 0.0117
in methanol, 298.21 K | 0.012
in methanol, 304.67 K | 0.0138
in methanol, 308.78 K | 0.0151
in methanol, 313.97 K | 0.0169
in water, 301.05 K | 0.00015
in water, 305.47 K | 0.00019
in water, 309.8 K | 0.00025
in water, 315.22 K | 0.00033
in water, 320.56 K | 0.00044
in water, 325.11 K | 0.00055
in water, 329.42 K | 0.00069
